Measurements taken from ChEMBL document CHEMBL1150562, “Glánvillic acids A and B and methyl capucinoate A, new metabolites isolated from the Caribbean sponges Plakortis halichondrioides and Plakinastrella onkodes” (J Nat Prod, 2001).
Values after ≈ are worked out from the molar mass of the structure shown. Active and inactive are the calls of the source. No cut-off for these calls is given here.

What was measured:
[1] = Cytotoxicity against mouse B16-F1 cells; assay type: functional, cell-based
P388 [2] = test: In vivo cytotoxicity against mouse P388 cells; assay type: functional, organism-based
P388 [3] = test: Cytotoxicity against mouse P388 cells; assay type: functional, cell-based

Row | SMILES | IC50 [1] | Activity (P388 [2]) | IC50 (P388 [3])
1 | COC(=O)C[C@@H]1OO[C@@](C)(/C(C)=C/C=C/Cc2ccccc2)C[C@H]1C [METHYL CAPUCINOATE A] | 12 µg/mL (≈ 34.8 µM) | inactive | –
2 | CCCC(CC)CC(C)Cc1cc(CC)c(CC(=O)O)o1 (stereo not drawn) [GLNVILLIC ACID B] | – | – | > 20 µg/mL
3 | CC/C=C/C(CC)CC(C)Cc1cc(CC)c(CC(=O)O)o1 (stereo not drawn) [GLANVILLIC ACID A] | – | – | > 20 µg/mL
4 | CC/C=C/C(CC)CC(C)CC1(CC)C=C(CC)C(C(=O)O)OO1 (stereo not drawn) | – | inactive | 0.055 µg/mL (≈ 0.162 µM)
5 | COC(=O)C[C@@H]1OO[C@@](C)(/C(C)=C/C(C)=C/Cc2ccccc2)C[C@H]1C | 12 µg/mL (≈ 33.5 µM) | inactive | –
